The values that follow come from ChEMBL document CHEMBL3734671, “Design and synthesis of an in vivo-efficacious PIM3 kinase inhibitor as a candidate anti-pancreatic cancer agent” (Bioorg Med Chem Lett, 2015).

Values after ≈ are worked out from the molar mass of the structure shown. Active and inactive are the calls of the source. The rule behind the calls is not given here.

What is called IC50 is the concentration that gives 50% inhibition. A word on the inhibition: it is the relative decrease from the control value, in per cent. The solubility is how much of the substance goes into solution per volume. Lower therefore signals little dissolved substance.

A short description of data set [1]: Growth inhibition of human PANC1 cells after 72 hrs by CCK-8 assay. Particulars: PANC-1, 72 h. The class given is functional, cell-based. Background: Tetrazolium assays rely on reduction of a dye to a coloured formazan, in cell work by metabolically active cells.
For data set [2], the target named is Serine/threonine-protein kinase pim-3 (Homo sapiens, UniProt Q86V86). Description: Inhibition of PIM3 (unknown origin) using FL-Peptide 1 (5-FAM-AKRRRLSSLRA-COOH) substrate incubated for 2 hrs by electrophoretic mobility shift assay. Background: A gel shift assay detects complexes by their altered migration in electrophoresis.
A further data set concerns the target CYP2D6 (Homo sapiens, UniProt P10635). Description: Inhibition of CYP2D6 (unknown origin) at 10 uM. The class given is ADME.
The next data set addresses CYP2C9 (Homo sapiens, UniProt P11712). Description: Inhibition of CYP2C9 (unknown origin) at 10 uM. Format: ADME.
Another data set deals with CYP2C19 (Homo sapiens, UniProt P33261). The data set can be described thus: Inhibition of CYP2C19 (unknown origin) at 10 uM. The class given is ADME.
Another data set deals with CYP3A4 (Homo sapiens, UniProt P08684). Description: Inhibition of CYP3A4 (unknown origin) at 10 uM. The class given is ADME.
A further data set deals with hERG (KCNH2) (Homo sapiens, UniProt Q12809). Description: Inhibition of human ERG at 10 uM by patch-clamp method. (In patch-clamp work, channel activity is measured electrically.)
For the next data set, the target named is T1, CYP1A2 (Homo sapiens, UniProt P05177).
T1 sequence (P05177 whole entry): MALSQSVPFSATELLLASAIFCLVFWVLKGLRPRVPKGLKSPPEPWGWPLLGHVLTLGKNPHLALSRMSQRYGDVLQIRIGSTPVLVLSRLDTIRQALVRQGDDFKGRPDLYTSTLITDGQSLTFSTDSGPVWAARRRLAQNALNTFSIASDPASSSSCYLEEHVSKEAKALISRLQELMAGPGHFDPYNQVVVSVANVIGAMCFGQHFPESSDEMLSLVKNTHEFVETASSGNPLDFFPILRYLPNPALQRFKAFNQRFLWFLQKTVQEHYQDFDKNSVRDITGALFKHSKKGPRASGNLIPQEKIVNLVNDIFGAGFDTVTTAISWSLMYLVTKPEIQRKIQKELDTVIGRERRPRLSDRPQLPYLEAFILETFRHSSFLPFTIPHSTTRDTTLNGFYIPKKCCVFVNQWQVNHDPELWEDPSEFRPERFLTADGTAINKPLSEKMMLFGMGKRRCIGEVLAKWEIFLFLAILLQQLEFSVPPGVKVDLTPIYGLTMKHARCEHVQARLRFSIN
Description: Inhibition of CYP1A2 (unknown origin) at 10 uM. Format: ADME.

Data set [3] is described as follows: Aqueous solubility in PBS buffer solution at pH 7.4. Format: physicochemical.
Data set [4] is described as follows: Growth inhibition of human PCI66 cells at 10 uM after 72 hrs by CCK-8 assay. The class given is functional. Particulars: PCI66, 72 h, read-out: GI.
Data set [5] in a line: Growth inhibition of human MIAPaCa2 cells at 10 uM after 72 hrs by CCK-8 assay. Format: functional. Particulars: MIA PaCa-2, 72 h, read-out: GI.
The nature of data set [6]: Growth inhibition of human PCI35 cells after 72 hrs by CCK-8 assay. Particulars: PCI35, 72 h. The class given is functional, cell-based.
Data set [7] can be described thus: Growth inhibition of human PCI66 cells after 72 hrs by CCK-8 assay. Format: functional, cell-based. Particulars: PCI66, 72 h.
A short description of data set [8]: Growth inhibition of human L3.6PL cells after 72 hrs by CCK-8 assay. Format: functional.
Data set [9] can be described thus: Growth inhibition of human MIAPaCa2 cells after 72 hrs by CCK-8 assay. The class given is functional, cell-based. Particulars: MIA PaCa-2, 72 h.
Data set [10] addresses Receptor-type tyrosine-protein kinase FLT3 (Homo sapiens) (UniProt P36888). The data set can be described thus: Inhibition of FLT3 (unknown origin) at 200 nM by electrophoretic mobility shift assay.
In data set [11] the target is Serine/threonine-protein kinase pim-2 (Homo sapiens, UniProt Q9P1W9). Description: Inhibition of PIM2 (unknown origin) by electrophoretic mobility shift assay.
Chain of Serine/threonine-protein kinase pim-2 (Q9P1W9 whole entry): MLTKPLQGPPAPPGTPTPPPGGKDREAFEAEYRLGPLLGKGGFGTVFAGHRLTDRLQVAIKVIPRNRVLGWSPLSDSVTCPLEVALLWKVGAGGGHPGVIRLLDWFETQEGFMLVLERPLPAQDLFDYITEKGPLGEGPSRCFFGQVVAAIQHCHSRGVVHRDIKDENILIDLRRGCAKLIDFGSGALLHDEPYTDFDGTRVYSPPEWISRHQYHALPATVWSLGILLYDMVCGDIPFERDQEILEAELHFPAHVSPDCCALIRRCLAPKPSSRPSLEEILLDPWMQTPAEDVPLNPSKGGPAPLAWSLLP

Chain of CYP2C9 (P11712 whole entry): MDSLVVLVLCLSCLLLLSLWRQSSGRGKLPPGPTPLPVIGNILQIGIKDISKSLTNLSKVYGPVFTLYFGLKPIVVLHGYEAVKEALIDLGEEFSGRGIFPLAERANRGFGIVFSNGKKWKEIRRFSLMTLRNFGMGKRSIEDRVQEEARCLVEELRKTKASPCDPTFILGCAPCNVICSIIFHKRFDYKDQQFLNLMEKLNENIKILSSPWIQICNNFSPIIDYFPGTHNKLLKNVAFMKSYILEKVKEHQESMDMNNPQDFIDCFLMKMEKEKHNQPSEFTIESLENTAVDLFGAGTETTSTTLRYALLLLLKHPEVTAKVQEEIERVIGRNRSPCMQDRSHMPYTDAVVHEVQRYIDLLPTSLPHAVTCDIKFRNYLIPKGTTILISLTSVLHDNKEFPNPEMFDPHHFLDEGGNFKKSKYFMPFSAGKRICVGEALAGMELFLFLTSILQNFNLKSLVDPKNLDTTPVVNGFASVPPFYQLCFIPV
Chain of Receptor-type tyrosine-protein kinase FLT3 (Homo sapiens) (P36888 whole entry): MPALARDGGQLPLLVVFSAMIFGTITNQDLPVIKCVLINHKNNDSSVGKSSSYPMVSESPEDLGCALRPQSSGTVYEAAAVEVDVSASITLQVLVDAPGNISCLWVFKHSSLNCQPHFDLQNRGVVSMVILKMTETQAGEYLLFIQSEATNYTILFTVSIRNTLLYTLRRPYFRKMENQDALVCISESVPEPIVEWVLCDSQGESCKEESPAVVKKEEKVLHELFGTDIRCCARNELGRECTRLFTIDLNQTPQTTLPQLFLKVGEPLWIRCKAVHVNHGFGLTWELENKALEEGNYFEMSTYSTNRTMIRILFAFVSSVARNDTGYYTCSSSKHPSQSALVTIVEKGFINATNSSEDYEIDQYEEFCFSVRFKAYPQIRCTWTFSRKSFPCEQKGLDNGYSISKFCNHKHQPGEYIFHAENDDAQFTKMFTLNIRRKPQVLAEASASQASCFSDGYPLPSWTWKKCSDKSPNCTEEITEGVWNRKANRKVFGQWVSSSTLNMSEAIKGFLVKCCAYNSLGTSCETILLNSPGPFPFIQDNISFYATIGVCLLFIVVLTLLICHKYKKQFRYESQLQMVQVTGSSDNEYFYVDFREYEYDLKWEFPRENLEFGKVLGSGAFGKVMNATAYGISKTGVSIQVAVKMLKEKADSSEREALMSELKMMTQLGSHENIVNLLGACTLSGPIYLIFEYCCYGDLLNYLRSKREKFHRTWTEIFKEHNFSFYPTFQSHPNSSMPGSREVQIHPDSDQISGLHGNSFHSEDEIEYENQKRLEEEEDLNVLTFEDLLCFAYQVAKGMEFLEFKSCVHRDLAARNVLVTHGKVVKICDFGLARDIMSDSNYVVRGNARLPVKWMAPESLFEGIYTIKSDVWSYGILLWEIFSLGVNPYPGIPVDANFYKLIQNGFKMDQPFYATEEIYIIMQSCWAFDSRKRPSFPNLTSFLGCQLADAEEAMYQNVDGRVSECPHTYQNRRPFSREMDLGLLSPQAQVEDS
Chain of hERG (KCNH2) (Q12809 whole entry): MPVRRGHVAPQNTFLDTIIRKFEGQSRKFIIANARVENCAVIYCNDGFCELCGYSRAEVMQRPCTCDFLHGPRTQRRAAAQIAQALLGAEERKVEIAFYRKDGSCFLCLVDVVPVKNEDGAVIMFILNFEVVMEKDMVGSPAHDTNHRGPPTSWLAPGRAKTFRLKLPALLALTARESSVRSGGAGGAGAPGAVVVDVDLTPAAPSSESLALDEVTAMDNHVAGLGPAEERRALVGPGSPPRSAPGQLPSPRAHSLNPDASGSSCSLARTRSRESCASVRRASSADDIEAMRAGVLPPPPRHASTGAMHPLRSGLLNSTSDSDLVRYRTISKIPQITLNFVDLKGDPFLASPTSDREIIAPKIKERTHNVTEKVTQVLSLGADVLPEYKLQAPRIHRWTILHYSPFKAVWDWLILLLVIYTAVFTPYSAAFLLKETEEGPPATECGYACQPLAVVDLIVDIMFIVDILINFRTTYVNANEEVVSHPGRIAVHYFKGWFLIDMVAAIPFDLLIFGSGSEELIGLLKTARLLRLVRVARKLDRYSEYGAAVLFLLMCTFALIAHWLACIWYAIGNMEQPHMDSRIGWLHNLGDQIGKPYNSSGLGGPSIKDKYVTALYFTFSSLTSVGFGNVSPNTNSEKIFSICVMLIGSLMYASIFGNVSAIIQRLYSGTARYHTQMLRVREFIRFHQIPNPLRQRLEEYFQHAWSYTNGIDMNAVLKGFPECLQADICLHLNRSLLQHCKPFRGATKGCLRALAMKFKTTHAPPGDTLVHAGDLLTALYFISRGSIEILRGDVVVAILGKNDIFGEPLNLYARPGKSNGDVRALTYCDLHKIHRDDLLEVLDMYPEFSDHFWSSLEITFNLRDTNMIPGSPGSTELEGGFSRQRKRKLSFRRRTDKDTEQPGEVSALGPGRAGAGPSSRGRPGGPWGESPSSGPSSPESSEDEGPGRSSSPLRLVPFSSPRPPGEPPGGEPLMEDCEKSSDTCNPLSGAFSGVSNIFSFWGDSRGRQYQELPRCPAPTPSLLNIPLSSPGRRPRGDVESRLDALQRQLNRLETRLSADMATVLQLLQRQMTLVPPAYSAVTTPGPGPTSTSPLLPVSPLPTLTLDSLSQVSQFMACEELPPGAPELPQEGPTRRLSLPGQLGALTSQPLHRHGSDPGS
Chain of CYP3A4 (P08684 whole entry): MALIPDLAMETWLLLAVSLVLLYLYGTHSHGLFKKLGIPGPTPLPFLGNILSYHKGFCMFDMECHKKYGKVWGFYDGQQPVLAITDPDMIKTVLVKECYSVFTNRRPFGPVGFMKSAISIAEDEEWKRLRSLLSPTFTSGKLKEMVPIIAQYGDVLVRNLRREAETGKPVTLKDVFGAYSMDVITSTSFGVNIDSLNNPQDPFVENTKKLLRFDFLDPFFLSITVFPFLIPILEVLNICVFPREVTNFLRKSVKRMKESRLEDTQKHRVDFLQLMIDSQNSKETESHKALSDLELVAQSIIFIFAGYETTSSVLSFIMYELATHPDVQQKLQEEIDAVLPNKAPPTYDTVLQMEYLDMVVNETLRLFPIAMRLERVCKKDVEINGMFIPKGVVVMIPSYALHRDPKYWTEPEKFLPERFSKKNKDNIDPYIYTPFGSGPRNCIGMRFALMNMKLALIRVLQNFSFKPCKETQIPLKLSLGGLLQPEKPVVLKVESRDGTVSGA
Chain of CYP2C19 (P33261 whole entry): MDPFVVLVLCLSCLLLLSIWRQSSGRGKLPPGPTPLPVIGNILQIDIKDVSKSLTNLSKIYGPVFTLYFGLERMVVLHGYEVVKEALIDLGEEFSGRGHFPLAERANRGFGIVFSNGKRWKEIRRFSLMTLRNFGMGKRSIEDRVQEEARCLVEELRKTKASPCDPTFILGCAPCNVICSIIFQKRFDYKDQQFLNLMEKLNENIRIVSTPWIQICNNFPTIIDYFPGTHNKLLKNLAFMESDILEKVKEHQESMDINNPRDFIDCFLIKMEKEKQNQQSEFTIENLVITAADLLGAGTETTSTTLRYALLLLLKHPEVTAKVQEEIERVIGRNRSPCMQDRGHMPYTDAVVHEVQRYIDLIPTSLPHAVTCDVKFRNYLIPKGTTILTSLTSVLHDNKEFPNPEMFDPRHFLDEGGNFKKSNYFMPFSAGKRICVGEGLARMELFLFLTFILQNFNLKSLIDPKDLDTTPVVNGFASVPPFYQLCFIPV
Chain of CYP2D6 (P10635 whole entry): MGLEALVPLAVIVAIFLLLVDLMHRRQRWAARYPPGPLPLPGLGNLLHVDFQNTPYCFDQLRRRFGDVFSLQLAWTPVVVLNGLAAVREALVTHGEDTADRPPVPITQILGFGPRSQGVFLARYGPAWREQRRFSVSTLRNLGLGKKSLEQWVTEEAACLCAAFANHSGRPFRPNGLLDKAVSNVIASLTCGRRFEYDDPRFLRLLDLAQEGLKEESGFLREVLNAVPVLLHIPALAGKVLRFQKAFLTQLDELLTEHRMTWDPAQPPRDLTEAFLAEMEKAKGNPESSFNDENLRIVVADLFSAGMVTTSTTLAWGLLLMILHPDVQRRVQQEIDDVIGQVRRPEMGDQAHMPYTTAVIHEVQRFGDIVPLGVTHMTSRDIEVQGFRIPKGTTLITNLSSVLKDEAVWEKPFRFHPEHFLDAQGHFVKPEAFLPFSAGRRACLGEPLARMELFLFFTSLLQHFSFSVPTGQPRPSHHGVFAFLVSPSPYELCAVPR

Consider `CC(c1c(OCCO)ccc2c1O/C(=C\c1n[nH]c3ncccc13)C2=O)N1CCNCC1` (centres undefined), for which the IC50 is greater than 10 µM in data set [1] and 0.0064 µM in data set [2].
In the case of `COCCOc1ccc2c(c1C(C)N1CCNCC1)O/C(=C\c1n[nH]c3ncccc13)C2=O` (centres undefined), the IC50 in data set [1] came to 3.3 µM; in data set [2], 0.003 µM. Further, the inhibition at 10 µM at CYP2D6 is 83%; against CYP2C9, less than 1%; against CYP2C19, less than 1%; against CYP3A4 it was less than 1%; against hERG (KCNH2) it was 16%; at CYP1A2 it was less than 1%. For the same compound, the solubility in data set [3] is 196 µM (≈ 88.1 µg/mL).
In the case of `COc1ccc2c(c1CN1CCN[C@H](C)C1)O/C(=C\c1n[nH]c3ncccc13)C2=O`, the IC50 in [1] worked out at 8.4 µM; in data set [2], 0.004 µM.
Turning to `COc1ccc2c(c1CN1CCN[C@@H](C)C1)O/C(=C\c1n[nH]c3ncccc13)C2=O`, the IC50 in [1] was 6.9 µM; in data set [2] it was 0.0008 µM.
In the case of `COc1ccc2c(c1CN1CCNCC1)O/C(=C\c1c[nH]c3ccncc13)C2=O`, the IC50 in [1] was greater than 10 µM; in data set [2] it was 0.13 µM.
Consider `COc1ccc2c(c1CN1CCNCC1)O/C(=C\c1c[nH]c3cccnc13)C2=O`, for which the figures for the IC50 in data set [1] and in data set [2] were greater than 10 µM and greater than 2 µM, respectively.
For the compound `COc1ccc2c(c1CN1CCNCC1)O/C(=C\c1c[nH]c3cnccc13)C2=O`, the half-maximal inhibitory concentration (IC50) in [1] was greater than 10 µM; in data set [2], 0.044 µM.
With `COc1ccc2c(c1CN1CCNC[C@@H]1C)O/C(=C\c1n[nH]c3ncccc13)C2=O`, the IC50 in [1] is greater than 10 µM; in data set [2], 0.0011 µM.
Take `COc1ccc2c(c1CN1CCNC[C@H]1C)O/C(=C\c1n[nH]c3ncccc13)C2=O`: the IC50 was greater than 10 µM in data set [1] and 0.018 µM in [2].
In the case of `COc1ccc2c(c1CN1CCNCC1)O/C(=C\c1c[nH]c3ncccc13)C2=O`, the IC50 in data set [1] is 5.2 µM; in [2], 0.0013 µM.
With `C#Cc1cccc(Nc2ncnc3cc(OCCOC)c(OCCOC)cc23)c1` [ERLOTINIB], the IC50 was 3.1 µM in data set [1]; 7.7 µM in data set [6]; greater than 10 µM in data set [7]; 4 µM in data set [8]; greater than 10 µM in data set [9]. The inhibition of growth at 10 µM was 12% in [4] and less than 1% in [5].
As to `COc1ccc2c(c1CN1CCNCC1)O/C(=C\c1n[nH]c3ccccc13)C2=O`, the inhibition result in data set [10] was “Active”. The IC50 in data set [1] was greater than 10 µM; in data set [6], greater than 10 µM; in data set [7], greater than 10 µM; in data set [2], 0.025 µM; in [11], greater than 1 µM; in data set [8], greater than 10 µM. The IC50 in [9] was greater than 10 µM. Besides, at CYP2C9, the inhibition at 10 µM is less than 1%. This compound yielded a solubility in data set [3] of 187 µM (≈ 73 µg/mL).
